What was measured:
Assay type in all cases: cell-based
human TLR9 = biological target: T1, human TLR9 (Homo sapiens, UniProt Q9NR96); experiment: TLR9 inhibition reporter assay (HEK-Blue, SEAP); conditions: HEK-Blue cells overexpressing human TLR9, ODN2006 5 nM, 22 hour incubation
T1 construct: host or cells: HEK-Blue cells
T1 sequence (Q9NR96 26-1032): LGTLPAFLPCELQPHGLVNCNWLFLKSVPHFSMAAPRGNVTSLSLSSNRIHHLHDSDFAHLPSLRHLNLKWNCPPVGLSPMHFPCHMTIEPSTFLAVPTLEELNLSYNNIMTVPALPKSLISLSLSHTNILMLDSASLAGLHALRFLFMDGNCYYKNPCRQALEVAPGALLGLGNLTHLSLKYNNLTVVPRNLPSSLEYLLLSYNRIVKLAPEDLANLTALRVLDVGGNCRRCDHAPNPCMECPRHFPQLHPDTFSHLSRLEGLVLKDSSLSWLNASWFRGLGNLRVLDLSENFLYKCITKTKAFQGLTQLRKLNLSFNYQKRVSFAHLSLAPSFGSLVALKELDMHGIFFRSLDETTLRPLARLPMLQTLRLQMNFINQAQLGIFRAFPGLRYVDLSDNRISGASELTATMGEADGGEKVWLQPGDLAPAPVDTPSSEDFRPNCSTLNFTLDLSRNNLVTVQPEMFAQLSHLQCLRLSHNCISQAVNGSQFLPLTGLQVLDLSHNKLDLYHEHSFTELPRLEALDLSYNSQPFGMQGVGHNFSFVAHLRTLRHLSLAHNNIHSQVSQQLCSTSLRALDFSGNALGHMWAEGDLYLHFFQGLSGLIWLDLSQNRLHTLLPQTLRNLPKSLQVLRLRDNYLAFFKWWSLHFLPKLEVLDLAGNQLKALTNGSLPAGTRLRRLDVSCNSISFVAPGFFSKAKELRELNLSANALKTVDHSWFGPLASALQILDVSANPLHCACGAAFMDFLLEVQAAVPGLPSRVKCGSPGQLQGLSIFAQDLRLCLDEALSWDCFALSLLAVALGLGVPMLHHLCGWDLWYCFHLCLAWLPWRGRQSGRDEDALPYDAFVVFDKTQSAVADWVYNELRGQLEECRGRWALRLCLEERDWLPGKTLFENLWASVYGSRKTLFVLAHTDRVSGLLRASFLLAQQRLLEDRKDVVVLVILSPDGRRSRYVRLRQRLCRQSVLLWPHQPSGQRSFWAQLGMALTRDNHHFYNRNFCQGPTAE
Method in brief: (§1)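 Human TLR7/8/9 HEK-Blue reporter lines; dose range 0.05 nM–50 μM; 30 min RT preincubation; stimulus gardiquimod 7.5 μM / R848 15.9 μM / ODN2006 5 nM respectively; 22 h, 37 °C; SEAP detected colorimetrically.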

human TLR7 = biological target: T2, human TLR7 (Homo sapiens, UniProt Q9NYK1); experiment: TLR7 inhibition reporter assay (HEK-Blue, SEAP); conditions: HEK-Blue cells overexpressing human TLR7, gardiquimod 7.5 μM, 22 hour incubation
T2 construct: host or cells: HEK-Blue cells
T2 sequence (Q9NYK1 27-1049): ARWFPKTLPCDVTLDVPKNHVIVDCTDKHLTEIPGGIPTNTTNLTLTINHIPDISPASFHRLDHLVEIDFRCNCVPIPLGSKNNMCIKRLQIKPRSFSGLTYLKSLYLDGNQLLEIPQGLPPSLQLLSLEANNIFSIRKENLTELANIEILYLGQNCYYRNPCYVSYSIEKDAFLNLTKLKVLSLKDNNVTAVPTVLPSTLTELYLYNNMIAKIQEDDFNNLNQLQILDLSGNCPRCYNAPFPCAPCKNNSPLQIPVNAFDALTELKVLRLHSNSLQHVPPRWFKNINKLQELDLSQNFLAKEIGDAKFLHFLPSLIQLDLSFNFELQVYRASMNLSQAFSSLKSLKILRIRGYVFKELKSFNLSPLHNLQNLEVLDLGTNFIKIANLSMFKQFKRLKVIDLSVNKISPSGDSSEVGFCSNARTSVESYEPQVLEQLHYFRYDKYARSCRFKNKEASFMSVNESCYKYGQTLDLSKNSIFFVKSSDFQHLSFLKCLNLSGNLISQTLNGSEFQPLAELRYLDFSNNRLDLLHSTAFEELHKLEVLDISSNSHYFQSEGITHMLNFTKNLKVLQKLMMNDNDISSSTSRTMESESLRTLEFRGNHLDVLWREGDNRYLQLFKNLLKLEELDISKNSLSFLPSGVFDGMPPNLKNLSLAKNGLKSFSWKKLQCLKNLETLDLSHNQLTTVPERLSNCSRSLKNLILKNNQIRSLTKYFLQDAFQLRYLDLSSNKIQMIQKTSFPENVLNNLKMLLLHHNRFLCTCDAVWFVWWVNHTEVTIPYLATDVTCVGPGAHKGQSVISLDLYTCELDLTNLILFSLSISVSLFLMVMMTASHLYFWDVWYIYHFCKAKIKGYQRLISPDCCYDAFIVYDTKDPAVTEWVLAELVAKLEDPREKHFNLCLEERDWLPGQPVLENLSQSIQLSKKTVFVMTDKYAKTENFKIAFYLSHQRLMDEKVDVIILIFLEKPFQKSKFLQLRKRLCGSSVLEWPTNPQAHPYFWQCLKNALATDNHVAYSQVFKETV
Method in brief: as §1

human TLR8 = biological target: T3, human TLR8 (Homo sapiens, UniProt Q9NR97); experiment: TLR8 inhibition reporter assay (HEK-Blue, SEAP); conditions: HEK-Blue cells overexpressing human TLR8, R848 15.9 μM, 22 hour incubation
T3 construct: host or cells: HEK-Blue cells
T3 sequence (Q9NR97 27-1041): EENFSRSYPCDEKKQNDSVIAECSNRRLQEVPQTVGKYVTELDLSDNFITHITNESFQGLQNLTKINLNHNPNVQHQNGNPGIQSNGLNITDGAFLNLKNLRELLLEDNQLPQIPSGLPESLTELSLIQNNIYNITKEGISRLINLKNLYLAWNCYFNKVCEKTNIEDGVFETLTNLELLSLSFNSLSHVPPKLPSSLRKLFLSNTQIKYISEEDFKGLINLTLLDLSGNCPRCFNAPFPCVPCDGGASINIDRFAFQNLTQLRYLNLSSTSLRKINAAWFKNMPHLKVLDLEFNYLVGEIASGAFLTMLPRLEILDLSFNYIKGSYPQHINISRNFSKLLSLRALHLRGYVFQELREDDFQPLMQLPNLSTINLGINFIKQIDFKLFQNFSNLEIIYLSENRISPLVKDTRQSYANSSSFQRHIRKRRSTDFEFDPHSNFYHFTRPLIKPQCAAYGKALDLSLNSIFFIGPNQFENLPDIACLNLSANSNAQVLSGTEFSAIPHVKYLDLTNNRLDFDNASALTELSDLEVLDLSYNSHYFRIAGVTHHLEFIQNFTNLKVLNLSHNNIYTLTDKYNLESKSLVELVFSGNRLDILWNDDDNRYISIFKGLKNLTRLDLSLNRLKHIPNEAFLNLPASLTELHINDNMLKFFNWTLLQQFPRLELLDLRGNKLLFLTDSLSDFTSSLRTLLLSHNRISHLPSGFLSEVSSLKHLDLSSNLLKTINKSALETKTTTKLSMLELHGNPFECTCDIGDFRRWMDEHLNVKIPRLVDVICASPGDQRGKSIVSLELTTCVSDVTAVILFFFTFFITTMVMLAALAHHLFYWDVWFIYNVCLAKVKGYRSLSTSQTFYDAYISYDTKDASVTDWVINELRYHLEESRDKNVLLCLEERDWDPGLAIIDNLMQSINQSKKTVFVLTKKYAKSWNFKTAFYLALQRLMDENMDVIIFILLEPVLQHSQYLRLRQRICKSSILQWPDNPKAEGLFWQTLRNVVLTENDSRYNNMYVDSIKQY
Method in brief: as §1

SMILES	IC50 (human TLR9)	IC50 (human TLR7)	IC50 (human TLR8)
Cc1ncc(CN2CCC(c3ccc4[nH]c(-c5cn6cnnc6c(C)c5C)c(C(C)C)c4c3)CC2)cn1 [Example 91, 6-(3-isopropyl-5-(1-((2-methylpyrimidin-5-yl)methyl)piperidin-4-yl)-1H-indol-2-yl)-7,8-dimethyl-[1,2,4]triazolo[4,3-a]pyridine]	1810 nM	1.5 nM	4.6 nM
Cc1c(-c2[nH]c3ccc(C4CCN(C5CC(C)OC(C)C5)CC4)cc3c2C(C)C)cn2cnnc2c1C (stereo not drawn) [Example 92, 6-(5-(1-(2,6-dimethyltetrahydro-2H-pyran-4-yl)piperidin-4-yl)-3-isopropyl-1H-indol-2-yl)-7,8-dimethyl-[1,2,4]triazolo[4,3-a] pyridine]	3270 nM	5.6 nM	15.2 nM
Cc1c(-c2[nH]c3ccc(C4CCN(C5CCOC5)CC4)cc3c2C(C)C)cn2cnnc2c1C (stereo not drawn) [Example 93, 6-(3-isopropyl-5-(1-(tetrahydrofuran-3-yl)piperidin-4-yl)-1H-indol-2-yl)-7,8-dimethyl-[1,2,4]triazolo[4,3-a)pyridine]	2800 nM	1.6 nM	4 nM
COc1cc(-c2[nH]c3ccc(C4CCN(C5CCC(F)(F)CC5)CC4)cc3c2C(C)C)cn2cnnc12 [Example 95, 6-(5-(1-(4,4-difluorocyclohexyl)piperidin-4-yl)-3-isopropyl-1H-indol-2-yl)-8-methoxy-[1,2,4] triazolo[4,3-a]pyridine]	2080 nM	0.7 nM	20.5 nM
Cc1c(-c2[nH]c3ccc(C4CCN(C(C)C)CC4)cc3c2C(C)C)cn2cnnc2c1C [Example 99, 6-(3-isopropyl-5-(1-isopropylpiperidin-4-yl)-1H-indol-2-yl)-7,8-dimethyl-[1,2,4]triazolo [4,3-a]pyridine]	2220 nM	1.7 nM	8.3 nM
Cc1c(-c2[nH]c3ccc(C4CCN(C5CC(C)(C)OC(C)(C)C5)CC4)cc3c2C(C)C)cn2cnnc2c1C [Example 100, 6-(3-isopropyl-5-(1-(2,2,6,6-tetramethyltetrahydro-2H-pyran-4-yl)piperidin-4-yl)-1H-indol-2-yl)-7,8-dimethyl-[1,2,4]triazolo[4,3-a]pyridine]	4440 nM	13.7 nM	31.6 nM

Results, then the compound that gave them:

IC50 (human TLR9)	IC50 (human TLR7)	IC50 (human TLR8)	SMILES
914 nM	0.6 nM	11.9 nM	COc1cc(-c2[nH]c3ccc(C4CCN(C5CCOC5)CC4)cc3c2C(C)C)cn2cnnc12 (stereo not drawn) [Example 94, 6-(3-isopropyl-5-(1-(tetrahydrofuran-3-yl)piperidin-4-yl)-1H-indol-2-yl)-8-methoxy-[1,2,4]triazolo[4,3-a]pyridine]
376 nM	1.2 nM	35.8 nM	COc1cc(-c2[nH]c3ccc(C4CCN(C)CC4)cc3c2C(C)C)cn2cnnc12 [Example 96, 6-(3-isopropyl-5-(1-methylpiperidin-4-yl)-1H-indol-2-yl)-8-methoxy-[1,2,4]triazolo[4,3-a)pyridine]
768 nM	2.3 nM	56.1 nM	COc1cc(-c2[nH]c3ccc(C4CCN(C(C)C)CC4)cc3c2C(C)C)cn2cnnc12 [Example 97, 6-(3-isopropyl-5-(1-isopropylpiperidin-4-yl)-1H-indol-2-yl)-8-methoxy-[1,2,4]triazolo[4,3-a]pyridine]
1790 nM	1 nM	12.1 nM	Cc1c(-c2[nH]c3ccc(C4CCN(C)CC4)cc3c2C(C)C)cn2cnnc2c1C [Example 98, 6-(3-isopropyl-5-(1-methylpiperidin-4-yl)-1H-indol-2-yl)-7,8-dimethyl-[1,2,4]triazolo[4,3-a]pyridine]
1440 nM	12.3 nM	12.4 nM	Cc1c(-c2[nH]c3ccc(C4CCN(C5CCC(F)(F)CC5)CC4)cc3c2C(C)C)cn2cnnc2c1C [Example 101, 6-(5-(1-(4,4-difluorocyclohexyl)piperidin-4-yl)-3-isopropyl-1H-indol-2-yl)-7,8-dimethyl-[1,2,4] triazolo[4,3-a]pyridine]
917 nM	2.5 nM	14.6 nM	Cc1cc(-c2[nH]c3ccc(C4CCN(C(=O)CN(C)C)CC4)cc3c2C(C)C)cn2cnnc12 [Example 104, 2-(dimethylamino)-1-(4-(3-isopropyl-2-(8-methyl-[1,2,4]triazolo[4,3-a]pyridin-6-yl)-1H-indol-5-yl)piperidin-1-yl)ethanone]
188 nM	5.9 nM	134 nM	CC(C)c1c(-c2ccc3nncn3c2)[nH]c2ccc(C3CCN(C(=O)CN(C)C)CC3)cc12 [Example 105, 1-(4-(2-([1,2,4]triazolo[4,3-a]pyridin-6-yl)-3-isopropyl-1H-indol-5-yl)piperidin-1-yl)-2-(dimethylamino)ethan-1-one]
382 nM	43 nM	39.1 nM	Cc1nnc2ccc(-c3[nH]c4ccc(C5CCN(C(=O)CN(C)C)CC5)cc4c3C(C)C)cn12 [Example 106, 2-(dimethylamino)-1-(4-(3-isopropyl-2-(3-methyl-[1,2,4]triazolo[4,3-a]pyridin-6-yl)-1H-indol-5-yl)piperidin-1-yl)ethan-1-one]
